The values that follow come from PubChem BioAssay AID1508612.

Some results are limits rather than exact numbers.

The series in a line: passive permeability, PAMPA, ADME assay (AID 1508612). The conditions noted are these: pH 7.4, 30.0 min, 50.0 µM. A general note: PAMPA measures passive passage across an artificial lipid membrane.

As to `COc1cc2c(C(=O)N3CCN(c4cccc(C(F)(F)F)c4)CC3)cn(CC(C)C)c(=O)c2cc1OC`, the Papp (commonly the rate of passage across a membrane or cell layer, normalised by area and donor concentration) was greater than 1000 ×10⁻⁶ cm/s.
To `Fc1ccc(-c2csc3ncnc(Sc4nnnn4C4CC4)c23)cc1` belongs 834 ×10⁻⁶ cm/s.
Then `Nc1ccccc1OCCn1c(CCNC(=O)C2CCCCC2)nc2ccccc21`, with 746 ×10⁻⁶ cm/s.
To `Cn1cnc(S(=O)(=O)Nc2cnccc2C(=O)Nc2nc(-c3ccccc3)cs2)c1` belongs 1.1 ×10⁻⁶ cm/s; to `CCC(=O)NC(c1cccs1)c1cc([N+](=O)[O-])c2cccnc2c1O` (configuration not stated), 36.3 ×10⁻⁶ cm/s.
`CC(C)(C)OC(=O)N1CCN(c2ccc(NCc3ccc(-c4ccc(C#N)cc4)o3)cc2)CC1` displayed a Papp of 338 ×10⁻⁶ cm/s. This Papp is about 9.3-fold higher than that of the compound before.
Turning to `Cc1nc(NCc2ccco2)nc2c1C(=O)CC(C)C2` (configuration not stated), the apparent permeability (Papp) is greater than 1000 ×10⁻⁶ cm/s.
Then `CC(=O)N1CCc2c(sc3c2c(=O)n(-c2ccccc2)c(=O)n3Cc2cccc(C(F)(F)F)c2)C1`, with greater than 1000 ×10⁻⁶ cm/s.
Then `O=C1Nc2ccccc2/C1=C\c1cc(Br)c(O)c(Br)c1`, with 50.5 ×10⁻⁶ cm/s.
To `O=S(=O)(Nc1nccs1)c1ccc(NCc2cccc(Cl)c2O)cc1` belongs 18.4 ×10⁻⁶ cm/s; to `COc1ccc(CNC(=O)Cn2nc3c(cc2=O)CCCC3)cc1`, 40.6 ×10⁻⁶ cm/s; to `Cc1ccc(S(=O)(=O)Nc2cnccc2C(=O)Nc2ccc(-c3nn[nH]n3)cc2)cc1`, 1.4 ×10⁻⁶ cm/s.
Take `OCc1cccc(-c2cc(-c3cccnc3)c3cncn3c2)c1`: the Papp was found to be 76 ×10⁻⁶ cm/s.
The compound `Cc1cccc(-c2noc([C@@H]3Cc4nc[nH]c4CN3C(=O)CC(C)(C)CC(=O)O)n2)c1` displayed a Papp of 34.2 ×10⁻⁶ cm/s. This Papp lies about 2.2-fold lower than the previous one.
In turn, `O=C1CCCC2=C1C(c1[nH]ncc1Cl)N=C(Nc1nc3cc([S+](=O)([O-])N4CCCC4)ccc3o1)N2` (configuration not stated) showed an apparent permeability coefficient (Papp) of 47 ×10⁻⁶ cm/s.
As for `C=Cc1ccc(C(=O)N2CCCC(CCC(=O)N3CCN(c4ccccn4)CC3)C2)cc1` (configuration not stated), the Papp came out at 421 ×10⁻⁶ cm/s.
To `CN(C)C(=O)C1CCN(c2nc(-c3ccc(Br)cc3)cs2)CC1` belongs 583 ×10⁻⁶ cm/s.
As for `Nc1ncc(S(=O)(=O)N2CCN(c3ccccc3)CC2)cn1`, the apparent permeability coefficient (Papp) was 13.5 ×10⁻⁶ cm/s.
`CN1CCN(C(=O)Cc2c[nH]c3ncc(-c4ccccc4Oc4ccccc4)cc23)CC1`: the apparent permeability (Papp) was greater than 1000 ×10⁻⁶ cm/s.
To `Cc1ccc(C(N)=O)cc1Nc1nccc(-c2cn(C(C)C)c3cnccc23)n1` belongs 877 ×10⁻⁶ cm/s; to `Oc1ccc(CN2CC(CNc3ccccc3)C3(C2)CN(c2ccccc2)C3)cc1` (configuration not stated), greater than 1000 ×10⁻⁶ cm/s; to `O=C(Nc1ccc(Cl)cc1)Nc1ccc(Cl)c(Cl)c1`, 240 ×10⁻⁶ cm/s.
For `O=C(Nc1ccc(Cl)c(S(=O)(=O)N2CCOCC2)c1)c1ccc(S(=O)(=O)N2CCOCC2)cc1`, the Papp was determined as 936 ×10⁻⁶ cm/s.
Then `Cc1cccc(CNc2ccc(S(=O)(=O)Nc3nccs3)cc2)c1O`, with 7.9 ×10⁻⁶ cm/s.
To `CCCCc1ccc(NC(=O)c2ccc3c(c2)N(S(C)(=O)=O)CC3)cc1` belongs 706 ×10⁻⁶ cm/s; to `COc1ccc(CN2CCc3c(c(=O)n4ncc(C(=O)N5CCN(c6ccccc6OC)CC5)c4n3C)C2)cc1`, 445 ×10⁻⁶ cm/s.
To `COc1cccc(-n2ncc3c2CCCC3NC(=O)c2ccccn2)c1` (configuration not stated) belongs greater than 1000 ×10⁻⁶ cm/s; to `Cc1sc2c(c1C)C(c1ccc(Cl)cc1)=N[C@H](CC(=O)NCCCCNC(=O)COc1cccc3c1C(=O)N([C@H]1CCC(=O)NC1=O)C3=O)c1nnc(C)n1-2`, less than 1 ×10⁻⁶ cm/s.
In turn, `Cc1ccc(N2CCN(c3cnn(-c4nc5ccccc5s4)c(=O)c3Cl)CC2C)cc1` (configuration not stated) registered a Papp of 317 ×10⁻⁶ cm/s.
`COc1cc(Nc2nc(-c3ccncc3)nc3ccccc23)ccc1F` gave a Papp of 445 ×10⁻⁶ cm/s. The Papp values of the last two compounds are within 1.5-fold of each other.
To `Fc1cc(Nc2nc(-c3ccncc3)nc3ccccc23)ccc1-c1cccc(C(F)(F)F)c1` belongs 16.8 ×10⁻⁶ cm/s.
`O=c1c(-c2ccc(O)cc2)coc2cc(O)ccc12`: the Papp was less than 1 ×10⁻⁶ cm/s.
Regarding `NC(=O)C1CCN(c2nc(-c3cccc(Br)c3)cs2)CC1`, the Papp was determined as 788 ×10⁻⁶ cm/s.
Compound `Cc1ccc(N2CCC(CNc3nc(-c4ccccc4C(C)C)ncc3F)CC2)cn1` came in with an apparent permeability (Papp) greater than 1000 ×10⁻⁶ cm/s.
Then `CC[S+](=O)([O-])Nc1ccccc1C(=O)Nc1nc(-c2ccccc2)cs1`, with 512 ×10⁻⁶ cm/s; and `CC(=O)N1CCc2cc(S(=O)(=O)NCCC3=CCCCC3)ccc21`, with 444 ×10⁻⁶ cm/s; and `NC(=O)NCC(=O)N[C@H]1CC[C@H](Nc2nccc(-c3ccncc3)n2)C1`, with less than 1 ×10⁻⁶ cm/s.
Compound `c1ccc(-c2cn[nH]c2)cc1` returned a Papp of 288 ×10⁻⁶ cm/s.
On to `CCCc1ccc(-c2csc(NC(=O)c3ccncc3NS(=O)(=O)c3ccc(C)cc3)n2)cc1`, for which the Papp was found to be 755 ×10⁻⁶ cm/s.
For the compound `CC1(C)CNc2cc(NC(=O)c3cccnc3NCc3ccncc3)ccc21`, the apparent permeability coefficient (Papp) was greater than 1000 ×10⁻⁶ cm/s.
To `O=S(=O)(c1ccccc1)N1CCN(c2nc(-c3ccc(Br)cc3)cs2)CC1` belongs 205 ×10⁻⁶ cm/s.
Then `N#CC1(c2ccc(NC(=O)c3cccnc3NCc3ccncc3)cc2)CCCC1`, with greater than 1000 ×10⁻⁶ cm/s; and `Cc1ccnc(C)c1C(=O)Nc1cccc([S+](=O)([O-])N(C)C)c1`, with 98.5 ×10⁻⁶ cm/s.
To `O=C(NC1CCCc2c1cnn2-c1cccc(O)c1)c1ccccn1` (configuration not stated) belongs 836 ×10⁻⁶ cm/s; to `O=C(Nc1ncnc2sc3c(c12)CCC3)c1ccco1`, 369 ×10⁻⁶ cm/s; to `NC(=O)c1ccc(-c2ncc3cnc(-c4cccc(F)c4)cn23)cc1`, 480 ×10⁻⁶ cm/s.
In turn, `O=C1CCCC2=C1C(c1[nH]ncc1Cl)N=C(Nc1nc3cccc(Cl)c3o1)N2` (configuration not stated) gave a Papp greater than 1000 ×10⁻⁶ cm/s.
Then `CCN(CC)C(=O)c1ccc(O)c(OC)c1`, with 482 ×10⁻⁶ cm/s; and `C#C[C@]1(OC(C)=O)CC[C@H]2[C@@H]3CCC4=C/C(=N/O)CC[C@@H]4[C@H]3CC[C@@]21CC`, with 858 ×10⁻⁶ cm/s; and `CCCNC(=O)c1ccc2c(c1)ncn2-c1cc(C)cc(C)c1`, with greater than 1000 ×10⁻⁶ cm/s.
Compound `CCOc1ccc(NC(=O)CC2C(=O)N(c3ccc(F)cc3)C(=O)N2CCc2sccc2C)cc1` (configuration not stated) showed a Papp of 927 ×10⁻⁶ cm/s.
`O=C(C1CC(=O)N(c2n[nH]c3ccccc23)C1)N1CCC(c2noc3cc(F)ccc23)CC1` (configuration not stated) registered a Papp of 726 ×10⁻⁶ cm/s.
As for `CCOC(=O)NNc1ccc(N(CC)CC(C)O)nn1` (configuration not stated), the apparent permeability coefficient (Papp) is 10.7 ×10⁻⁶ cm/s.
To `O=C(CCCCn1c(=O)[nH]c2ccsc2c1=O)N1CCN(c2cccc(Cl)c2)CC1` belongs 855 ×10⁻⁶ cm/s.
To `Cc1sc2c(c1C)C(c1ccc(Cl)cc1)=N[C@@H](CC(=O)Nc1ccc(OCCOCCOCCOCCNc3cccc4c3C(=O)N(C3CCC(=O)NC3=O)C4=O)cc1)c1nnc(C)n1-2` (some centres not stated) belongs 4.9 ×10⁻⁶ cm/s.
Consider `CN(C)C(=O)c1cccc(-c2csc(N3CCC(C(N)=O)CC3)n2)c1`, for which the Papp worked out at 30.5 ×10⁻⁶ cm/s.
In the case of `COc1cccc(-c2csc(N3CCC(C(N)=O)CC3)n2)c1`, the Papp stood at 638 ×10⁻⁶ cm/s.
To `COc1ccc(S(=O)(=O)Nc2cnccc2C(=O)Nc2nc(-c3ccccc3)cs2)cc1` belongs 675 ×10⁻⁶ cm/s; to `O=C(O)CCNc1cc(N2CCc3ccccc3CC2)nc(-c2ccccn2)n1`, less than 1 ×10⁻⁶ cm/s.
To `Nc1nc(N)c2c(OCC3CCN(Cc4ccccc4F)CC3)cccc2n1` belongs 938 ×10⁻⁶ cm/s; to `Cn1nnnc1Sc1ncnc2scc(-c3cccc(S(C)(=O)=O)c3)c12`, 93.9 ×10⁻⁶ cm/s.
`c1ccc(-c2cc(Nc3nc(-c4ccncc4)nc4ccccc34)n[nH]2)cc1` yielded a Papp of 39.4 ×10⁻⁶ cm/s.
To `CCN(CCN(C)C)C(=O)C1CCN(S(=O)(=O)c2c(C)noc2/C=C/c2ccccc2F)CC1` belongs greater than 1000 ×10⁻⁶ cm/s.
On to `C[C@@]1(C(=O)Nc2ccc(F)nc2)CCCN1c1nc(Nc2cc(C3CC3)[nH]n2)c2cccn2n1`, for which the apparent permeability (Papp) came to 780 ×10⁻⁶ cm/s.
To `COCCn1ccc2c(C3=CCOCC3)nc(-c3ccc4c(c3)CNC4=O)cc21` belongs 71.7 ×10⁻⁶ cm/s; to `CC1CCCCN1c1ncnc(N)c1[N+](=O)[O-]` (configuration not stated), 269 ×10⁻⁶ cm/s.
Then `Fc1cc(Nc2nc(-c3ccncc3)nc3ccccc23)ccc1-c1ccnc(C(F)(F)F)c1`, with 11.6 ×10⁻⁶ cm/s; and `COCCOc1cnc2ccn([C@H](C)c3nnc4c(F)cc(-c5cnn(C)c5)cn34)c(=O)c2c1`, with 15.1 ×10⁻⁶ cm/s; and `CC[C@H](NC(=O)[C@H](C)NC)C(=O)N1C[C@@H](O)C[C@H]1Cc1c(-c2[nH]c3cc(F)ccc3c2C[C@H]2C[C@H](O)CN2C(=O)[C@H](CC)NC(=O)[C@H](C)NC)[nH]c2cc(F)ccc12`, with less than 1 ×10⁻⁶ cm/s.
With `Fc1cnc(-c2ccccc2C(F)F)nc1NCC1CCN(c2cnccn2)CC1`, the Papp was greater than 1000 ×10⁻⁶ cm/s.
Compound `Cc1ccc(-n2ncc3c(NCCCN(C)C)ncnc32)cc1Cl` came in with a Papp greater than 1000 ×10⁻⁶ cm/s.
To `O=C(Cc1ccc(Cl)cc1)Nc1cnccc1C(=O)O` belongs 7 ×10⁻⁶ cm/s; to `Cc1cnc(-c2ccccc2C(C)C)nc1NCC1CCN(c2cccnc2)CC1`, greater than 1000 ×10⁻⁶ cm/s.
Then `O=c1[nH]cnc2c1ccn2C1OC(CO)C(O)C1O` (configuration not stated), with 3.01 ×10⁻⁶ cm/s; and `CCC[C@H](NC(=O)C(C#N)=Cc1cccc(Br)n1)c1ccccc1`, with greater than 1000 ×10⁻⁶ cm/s; and `O=S(=O)(Nc1nccs1)c1ccc(NCc2cc(Cl)ccc2O)cc1`, with 10.8 ×10⁻⁶ cm/s.
Then `O=C(NCC1CCOCC1)C1CC(=O)N(c2n[nH]c3cc(Br)ccc23)C1` (configuration not stated), with 16.1 ×10⁻⁶ cm/s; and `CCOC(=O)C1CCN(c2ncc(-c3ccc4c(c3)OCCCO4)s2)CC1`, with greater than 1000 ×10⁻⁶ cm/s.
Consider `Cc1ccc2c(c1)[nH]c1c(N3CCN(Cc4ccccc4)CC3)ncnc12`, for which the Papp is greater than 1000 ×10⁻⁶ cm/s.
Then `COC(=O)CNC(=O)c1nc(-c2ccc(Cl)nc2)c2cnccn12`, with 103 ×10⁻⁶ cm/s; and `CCOc1ccc(CCNC(=O)c2cc3ccccc3n2Cc2cc(C)cc(C)n2)cc1OCC`, with greater than 1000 ×10⁻⁶ cm/s; and `CC(C)=CCNc1ncnc2nc[nH]c12`, with 54.1 ×10⁻⁶ cm/s.
Then `Cc1ccc(C(=O)Nc2nc3nc(C)cc(=O)n3[nH]2)cc1`, with less than 1 ×10⁻⁶ cm/s.
Then `O=C(c1ccc(C(=O)N2CCC(N3CCCC3)CC2)c(Nc2ccccc2)c1)N1CCC(N2CCCC2)CC1`, with 7.61 ×10⁻⁶ cm/s.
`O=C(NCCc1ccccc1)C1CCN(c2nc(-c3ccc(Br)cc3)cs2)CC1` returned a Papp of less than 1 ×10⁻⁶ cm/s.
Turning to `COc1cc(C(=O)NC2CCCc3c2[nH]c2ccccc32)cc(OC)c1OC` (configuration not stated), the Papp is 189 ×10⁻⁶ cm/s.
To `C=Cc1ccc(Cn2c(C(=O)O)c(CNC3CCCCC3)c3ccc(OC)cc32)cc1` belongs 771 ×10⁻⁶ cm/s.
The compound `COc1cccc2nc(-c3cccs3)nc(NN3C(=O)C=C(C)C3=O)c12` showed a Papp of 353 ×10⁻⁶ cm/s.
To `Cn1cc(Br)c(C2N=C(Nc3nc4ccccc4o3)NC3=C2C(=O)CCC3)n1` (configuration not stated) belongs greater than 1000 ×10⁻⁶ cm/s; to `CCOC(=O)C1=C(CN(CC)Cc2ccccc2)NC(=O)NC1c1ccc(OC(C)C)cc1` (configuration not stated), greater than 1000 ×10⁻⁶ cm/s; to `O=C(Nc1cccnc1)c1cccs1`, 56.5 ×10⁻⁶ cm/s.
The compound `NC(=O)COCCN1CCN(C(c2ccccc2)c2ccc(Cl)cc2)CC1` (configuration not stated) displayed a Papp of 359 ×10⁻⁶ cm/s.
